One assay has as its system S. aureus USA 300. Briefly: MIC assay. As to conditions: Table 1, Met^R, MDR. The assay is classed as cell-based, Staphylococcus aureus.
A further assay relates to A. baumannii BNCC 194496. As to the kind of experiment: MIC assay. Particulars: Table 1, Cip^R. The assay is classed as cell-based, Acinetobacter baumannii.
Assay [1] deals with A. baumannii BNCC194496-mcr-1. Briefly: MIC assay. The assay is classed as cell-based. As to conditions: Acinetobacter baumannii, BNCC194496MCR1.
For a further assay, the system named is E. Coli MG1655-mcr-1. As to the kind of experiment: Neutropenic thigh infection model. The assay is classed as in vivo, mice. As to conditions: colistin resistant E. coli thigh infection, 20 mg/kg once daily s.c.
For a further assay, the system named is S. aureus BNCC 186335. As to the kind of experiment: MIC assay. The assay is classed as cell-based. Particulars: Staphylococcus aureus, BNCC186335, Table 1, Azm^R, Pen^R.

Converted amounts (≈) assume the structure as drawn. Positions of bridges follow the written chain, without caps; N, C: chain ends. Non-standard residues stand in square brackets, D forms with d. Residues, ends and D or L forms follow the SMILES beside them. *: point of attachment. X1 = CC[C@H](C)CCCCC(=O)*; Dab = NCC[C@H](N)C(=O)O Some results are limits rather than exact numbers.

For orientation: MIC means the smallest concentration in the dilution series that meets the test's criterion for growth inhibition.

As for `COc1cccc(OC)c1C(=O)N[C@@H]1C(=O)N2[C@@H]1SC(C)(C)[C@@H]2C(=O)O` [Methicillin], the minimal inhibitory concentration (MIC) against S. aureus USA 300 is more than 64 µg/mL.

With `CO/N=C(\C(=O)N[C@@H]1C(=O)N2C(C(=O)O)=CCS[C@H]12)c1csc(N)n1` [Ceftizoxime], the minimal inhibitory concentration (MIC) (with A. baumannii BNCC 194496; in assay [1]) was 4 µg/mL (≈ 10.4 µM) in each case.

Take `CC[C@H](C)CCCCC(=O)N[C@@H](CCN)C(=O)N[C@H](C(=O)N[C@@H](CCN)C(=O)N[C@H]1CCNC(=O)[C@H]([C@@H](C)O)NC(=O)[C@H](CCN)NC(=O)[C@H](CCN)NC(=O)[C@H](CC(C)C)NC(=O)[C@@H](CC(C)C)NC(=O)[C@H](CCN)NC1=O)[C@@H](C)O` [Colistin] (X1-[Dab]T[Dab][Dab][Dab][dL]L[Dab][Dab]T; lactam 4-C; N-terminus assumed): in the assay on E. Coli MG1655-mcr-1, the “reduction of bacterial burden” value is recorded as “no activity”.

As to `CN[C@H](CC(C)C)C(=O)N[C@H]1C(=O)N[C@@H](CC(N)=O)C(=O)N[C@H]2C(=O)N[C@H]3C(=O)N[C@H](C(=O)N[C@H](C(=O)O)c4cc(O)cc(O)c4-c4cc3ccc4O)[C@H](O)c3ccc(c(Cl)c3)Oc3cc2cc(c3O[C@@H]2O[C@H](CO)[C@@H](O)[C@H](O)[C@H]2O[C@H]2C[C@](C)(N)[C@H](O)[C@H](C)O2)Oc2ccc(cc2Cl)[C@H]1O` [Vancomycin], the minimal inhibitory concentration (MIC) against S. aureus USA 300 was 1 µg/mL (≈ 0.69 µM); with S. aureus BNCC 186335, 0.5 µg/mL (≈ 0.345 µM).

The values are drawn from PMC12314070 (Nature Communications, 2025).
